Data from patent publication US20120220461A1, “CRYSTAL FORMS OF SULFONYLUREA COMPOUND AND METHOD FOR PRODUCING THE SAME” (NISSAN CHEMICAL INDUSTRIES, LTD., priority 2009, published 2012).

Assay: Change of crystal form by heating, friction or suspension in a solvent
Format: physicochemical
Source text: In the present invention, for the discrimination of the crystal form, a powder X-ray diffraction measurement, a differential thermal analysis, ^13C CP/TOSS NMR, a Raman spectroscopy, and the like are effective, however, the method for the discrimination is not limited to these measurement methods.
• Apparatus: MXLabo (manufactured by Mac Science Corporation (present: Bruker AXS, Inc.)) • Ray source: Cu • Wavelength: 1.54056A • Goniometer: vertical-type goniometer • Tube voltage: 40.0 kV • Tube current: 30 mA • Measuring method: continuous method • Data range: 3.0400 to 40.0000 deg • Scanning axis: 2θ/θ • Sampling interval: 0.0400 deg • Scanning rate: 3.600 deg/min. • Emission slit: 1.00 deg • Scattering slit: 1.00 deg • Receiving slit: 0.15 mm • RSM: 0.80 mm
• Apparatus: TG 8120 (manufactured by Rigaku Corporation) • Temperature elevation: 20° C. to 300° C. at an elevation rate of 5° C./min • Atmosphere: Air • Reference: Al2O3 • Vessel: Al vessel • Sampling: 1 sec

Row | Structure (SMILES) | change of crystal form by heating or friction | change of crystal form by heating | change of crystal form on suspending in a solvent and stirring (suspended in a solvent, stirred)
1 | COc1cc(OC)nc(NC(=O)NS(=O)(=O)c2c(C3=NOCC(C)O3)c(Cl)nn2C)n1 (stereo not shown) [crystal form A, 3-chloro-N-(4,6-dimethoxypyrimidine-2-ylcarbamoyl)-1-methyl-4-(5-methyl-5,6-dihydro-1,4,2-dioxazine-3-yl)-1H-pyrazole-5-sulfonamide] | not observed |  | 
2 | COc1cc(OC)nc(NC(=O)NS(=O)(=O)c2c(C3=NOCC(C)O3)c(Cl)nn2C)n1 (stereo not shown) [crystal form C, 3-chloro-N-(4,6-dimethoxypyrimidine-2-ylcarbamoyl)-1-methyl-4-(5-methyl-5,6-dihydro-1,4,2-dioxazine-3-yl)-1H-pyrazole-5-sulfonamide] | transits to the crystal form A or B |  | 
3 | COc1cc(OC)nc(NC(=O)NS(=O)(=O)c2c(C3=NOCC(C)O3)c(Cl)nn2C)n1 (stereo not shown) [crystal form B, 3-chloro-N-(4,6-dimethoxypyrimidine-2-ylcarbamoyl)-1-methyl-4-(5-methyl-5,6-dihydro-1,4,2-dioxazine-3-yl)-1H-pyrazole-5-sulfonamide] |  | not observed | transits to be converted into the crystal form A

The next lines start with results.

Row | change of crystal form by heating or friction | change of crystal form by heating | Structure (SMILES) | change of crystal form on suspending in a solvent and stirring (suspended in a solvent, stirred)
4 |  | transits to the crystal form A | COc1cc(OC)nc(NC(=O)NS(=O)(=O)c2c(C3=NOCC(C)O3)c(Cl)nn2C)n1 (stereo not shown) [crystal form D, 3-chloro-N-(4,6-dimethoxypyrimidine-2-ylcarbamoyl)-1-methyl-4-(5-methyl-5,6-dihydro-1,4,2-dioxazine-3-yl)-1H-pyrazole-5-sulfonamide] | 
5 | transits to the crystal form A |  | COc1cc(OC)nc(NC(=O)NS(=O)(=O)c2c(C3=NOCC(C)O3)c(Cl)nn2C)n1 (stereo not shown) [crystal form F, 3-chloro-N-(4,6-dimethoxypyrimidine-2-ylcarbamoyl)-1-methyl-4-(5-methyl-5,6-dihydro-1,4,2-dioxazine-3-yl)-1H-pyrazole-5-sulfonamide] | 
6 | transits to the crystal form A |  | COc1cc(OC)nc(NC(=O)NS(=O)(=O)c2c(C3=NOCC(C)O3)c(Cl)nn2C)n1 (stereo not shown) [crystal form E, 3-chloro-N-(4,6-dimethoxypyrimidine-2-ylearbamoyl)-1-methyl-4-(5-methyl-5,6-dihydro-1,4,2-dioxazine-3-yl)-1H-pyrazole-5-sulfonamide] | 
